{
  "source": "patent US12559513B2",
  "about": "“Aromatic glycoside and method for producing the glycoside” (CAROTENOID-PRODUCTION TECHNOLOGY CORPORATION (CaroProTech), priority 2022, dated 2026)",
  "key": {"[1]": {"test_system": "rat brain homogenate", "test": "Peroxidation-inhibiting test of rat brain lipids (rat brain homogenate, TBA method)", "type": "biochemical", "details": "for IC50: 1 hour at 37° C., malondialdehyde by A532, read-out: IC50 (50% inhibition concentration of rat brain lipid-peroxidation)", "experimental": "The lipid peroxidation-inhibiting assay with rat brain homogenate is an experimental system for evaluating damages of biological system caused by the generation of ROS (Reactive Oxygen Species). It is because the rat brain is an organ that is easily oxidized by ROS. Using this system, we evaluated antioxidative activity of compounds 1-5.\nUsing rat brain homogenate, we examined lipid peroxidation-inhibiting activities of the test compounds. It was performed by incubating rat brain homogenate to proceed with lipid peroxidation reactions, with each compound and with no compound (as the control), by measuring the amounts of consequently generated malondialdehyde by absorbance at 532 nm in the TBA method, and by comparing the amounts of the malondialdehyde products between them.\nWe preincubated IWAKI disposable test tube ([…]×100 mm) that contained 0.6 mL of 100 mM phosphate buffer (pH 7.4), 0.05 mL of each test sample-including solution, 0.1 mL of 1 mM ascorbic acid, and 0.05 mL of distilled water at 37° C. for 5 min. And 0.2 mL of 2.5% (w/v) rat brain homogenate was added to the test tube, and incubated for 1 hour at 37° C. with shaking (150 rpm). Then, 1 mL of 0.2 N HCl solution including 20% (W/V) trichloroacetic acid and 0.5% (W/V) 2-thiobarbituric acid was added to the above test tube to stop the reaction. Next, this test tube containing each reaction solution was boiled for 30 min at 100° C. to produce color. After chilled on ice, each solution from the test tube was centrifuged with 3,000 rpm for 10 min, and the absorbance of each supernatant was measured at 532 nm (A532).\nThe lipid peroxidation-inhibiting ratio (%) of each extracted solution (containing each flavonoid glycoside as a test compound (T)) was calculated using the following Formula 1. (1−[T−B]/[C−B])′100. Formula 1\nT (test), C (control), and B (blank) are A532 of a test compound with the rat brain homogenate, the control (no compound (instead ethanol) with the homogenate), and the blank control (no compound (instead ethanol) without the homogenate (instead phosphate buffer)), respectively. The lipid peroxidation-inhibiting activity was determined as the IC50 value, representing the concentration at which 50% inhibition was observed.\n(Peroxidation-Inhibiting Test of Rat Brain Lipids)"}, "[2]": {"test_system": "mouse preadipocyte 3T3-L1", "test": "Differentiation-inducing test of mouse preadipocyte 3T3-L1 (Oil Red O staining)", "type": "cell-based", "details": "3T3-L1 cells, differentiation cocktail with insulin for 6 days", "excerpt": "Mouse preadipocyte 3T3-L1 is used for screening of activities for lipid metabolism improvement and anti-diabetes, since 3T3-L1 is induced to the differentiation of small adipocyte under proper conditions. This differentiated fat cell produces lipid bodies that can be stained with Oil Red O. PPAR (Peroxisome Proliferator-Activated Receptor) belongs to nuclear receptor superfamily. PPARγ is importantly related to differentiation of fat cells, e.g., activated PPARγ promotes differentiation from preadipocyte to adipocyte. Furthermore, PPARγ promotes apoptosis of large fat cells. Compounds activating PPARγ (PPARγ agonists) improve insulin resistance by inducing apoptosis of large fat cells that are willing to produce TNF-α and free fatty acids, reluctant to import sugars, and induce insulin resistance. PPARγ agonists further reduce blood glucose levels, and exert anti-diabetes activity by inducing differentiation to small fat cells that are reluctant to produce TNF-α and free fatty acids, willing to import glucose in blood, and improve glucose metabolism. Currently, PPARγ agonists such as rosiglitazone (thiazolidine) are used clinically to treat patients with type-2 diabetes mellitus.\nIn the present EXAMPLE, we carried out to examine whether aromatic compound glycosides can promote differentiation to small fat cells, using mouse 3T3-L1 preadipocyte.\nThus, we examined the PPARγ agonistic activities of compounds 3, 4, 20, and 21, which were selected as the representatives.\nThe 3T3-L1 cell line was purchased from Japanese Collection of Research Bioresources Cell Bank (JCRB, Osaka, Japan). The 3T3-L1 cells were cultured in DMEM with 10% fetal calf serum (FCS, Sigma Aldrich, St Lous, USA) and antibiotics ([…]). The cells were seeded in collagen coated 12-well plates at 10,000 cells/well (1 mL) and grown to confluence for 2 days. The differentiation procedure was initiated 2 days after cells reached confluence by changing the medium to the differentiation cocktail ([…] in DMEM containing 10% FBS and antibiotics) with or without various concentrations of test compounds (positive control, thiazolidine; four aromatic compound glycosite) dissolved in DMSO (10^3-10^4 times dilutions of the stocks were used). Thereafter, the cells were grown in the differentiation cocktail for 6 days.\nThen, Oil Red O (ORO) staining was performed to evaluate the ratio of the differentiated 3T3-L1 cells. […] ORO was then extracted from fixed cells with 100% isopropanol (1 mL), and OD500 values of isopropanol solution, which reflect the ORO amount imported into the cells (=the lipid (body) amount of the differentiated cells), were measured by 96-well microplate reader. […]"}},
  "data": [
    {"smiles": "CC1OC(Oc2cc(O)c3c(=O)c(O[C@@H]4OC(CO)[C@@H](O)C(O)C4O[C@@H]4OC(CO)[C@@H](O)C(O)C4O)c(-c4ccc(O)c(OC(=O)/C=C/c5ccc(O)c(O)c5)c4)oc3c2)C(O)C(O)C1O", "note": "(stereo partly shown) [Compound 1]", "values": [
      {"measurement": "IC50", "setting": "[1]", "value": 1700, "unit": "nM"}
    ]},
    {"smiles": "CC1OC(Oc2cc(O)c3c(=O)c(O[C@@H]4OC(CO)[C@@H](O)C(O)C4O[C@@H]4OC(CO)[C@@H](O)C(O)C4O)c(-c4ccc(OC(=O)/C=C/c5ccc(O)c(O)c5)cc4)oc3c2)C(O)C(O)C1O", "note": "(stereo partly shown) [Compound 2]", "values": [
      {"measurement": "IC50", "setting": "[1]", "value": 15000, "unit": "nM"}
    ]},
    {"smiles": "CC1OC(Oc2cc(O)c3c(=O)c(OC4OC(C)C(O)C(O)C4O[C@@H]4OC(CO)[C@@H](O)[C@H](O)C4O)c(-c4ccc(O)c(OC(=O)/C=C/c5ccc(O)c(O)c5)c4)oc3c2)C(O)C(O)C1O", "note": "(stereo partly shown) [Compound 3]", "values": [
      {"measurement": "IC50", "setting": "[1]", "value": 1400, "unit": "nM"},
      {"measurement": "activity for differentiation induction to small fat cells (adipose)", "setting": "[2]", "value": "strong activity for differentiation induction to small fat cells"}
    ]},
    {"smiles": "O=C(/C=C/c1ccc(O)c(O)c1)Oc1cc(-c2oc3cc(O)cc(O)c3c(=O)c2O[C@@H]2OC(CO)[C@@H](O)[C@H](O)C2O[C@@H]2OC(CO)[C@@H](O)[C@H](O)C2O)ccc1O", "note": "(stereo partly shown) [Compound 4]", "values": [
      {"measurement": "IC50", "setting": "[1]", "value": 1100, "unit": "nM"},
      {"measurement": "activity for differentiation induction to small fat cells (adipose)", "setting": "[2]", "value": "strong activity for differentiation induction to small fat cells"}
    ]},
    {"smiles": "CC1OC(Oc2c(-c3ccc(O)c(OC(=O)/C=C/c4ccc(O)c(O)c4)c3)oc3cc(O[C@@H]4OC(CO)[C@@H](O)[C@H](O)C4O)cc(O)c3c2=O)C(O[C@@H]2OC(CO)[C@@H](O)[C@H](O)C2O)C(O)C1O", "note": "(stereo partly shown) [Compound 5]", "values": [
      {"measurement": "IC50", "setting": "[1]", "value": 1500, "unit": "nM"}
    ]},
    {"smiles": "O=C(/C=C/c1ccc(O)c(O)c1)Oc1cc(-c2oc3cc(O[C@@H]4OC(C(=O)O)[C@@H](O)C(O)C4O)cc(O)c3c(=O)c2O[C@@H]2OC(CO)[C@@H](O)C(O)C2O[C@@H]2OC(CO)[C@@H](O)C(O)C2O)ccc1O", "note": "(stereo partly shown) [Compound 20]", "values": [
      {"measurement": "lipid peroxidation-inhibiting activity (in words)", "setting": "[1]", "value": "possess peroxidation-inhibiting activity"},
      {"measurement": "IC50", "setting": "[1]", "value": 1500, "unit": "nM"},
      {"measurement": "activity for differentiation induction to small fat cells (adipose)", "setting": "[2]", "value": "strong activity for differentiation induction to small fat cells"}
    ]},
    {"smiles": "O=C(/C=C/c1ccc(O)c(O)c1)Oc1ccc(-c2oc3cc(O[C@@H]4OC(C(=O)O)[C@@H](O)C(O)C4O)cc(O)c3c(=O)c2O[C@@H]2OC(CO)[C@@H](O)C(O)C2O[C@@H]2OC(CO)[C@@H](O)C(O)C2O)cc1", "note": "(stereo partly shown) [Compound 21]", "values": [
      {"measurement": "lipid peroxidation-inhibiting activity (in words)", "setting": "[1]", "value": "possess peroxidation-inhibiting activity"},
      {"measurement": "IC50", "setting": "[1]", "value": 23000, "unit": "nM"},
      {"measurement": "activity for differentiation induction to small fat cells (adipose)", "setting": "[2]", "value": "strong activity for differentiation induction to small fat cells"}
    ]}
  ]
}
